One series deals with MCL1. Put plainly: Western blotting of MCL1 downregulation in Hep3B cells. The series is classed as cell-based, human. The settings on record: 24 hours, sorafenib at 10 uM. How it is done: A first series of experiments was conducted to determine whether specific targeting of MCL1 recapitulates sorafenib synergy with SQT-BH3 in cells in vitro.
For series [1], the system named is Hep3B human hepatocellular carcinoma cells. The series is described as follows: Cell death of Hep3B cells transfected with truncated BID (tBID) mmRNA constructs (CellTiterGlo). Type of series: cell-based. The settings on record: CellTiterGlo (CTG) assay, varying doses. The text has this: One construct encoded a single copy of amino acids 61-195 of the BID protein that includes its BH3 domain (with a FLAG epitope tag). The open reading frame (ORF) amino acid sequence and corresponding nucleotide sequence encoding the ORF a.a. sequence are shown in SEQ ID NOs: 289 and 290, respectively. The sequence for the corresponding construct without the FLAG epitope tag is shown in SEQ ID NO: 291. A second construct encoded a single copy of amino acids 77-195 of the BID protein that includes its BH3 domain (with a FLAG epitope tag). The open reading frame (ORF) amino acid sequence and corresponding nucleotide sequence encoding the ORF a.a. sequence are shown in SEQ ID NOs: 292 and 293, respectively. The sequence for the corresponding construct without the FLAG epitope tag is shown in SEQ ID NO: 294. The open reading frame (ORF) amino acid sequence and corresponding nucleotide sequence encoding the ORF a.a. sequence of a third construct, containing amino acids 61-104 of the BID protein, are shown in SEQ ID NOs: 286 and 287, respectively. The sequence for the corresponding construct without the FLAG epitope tag is shown in SEQ ID NO: 288. […]
Hep3B cells/well were plated in 96 well plates and the cells were transfected with varying doses of the mmRNA constructs. Cell death was measured using the CellTiterGlo (CTG) assay. […]

Turning to `CNC(=O)c1cc(Oc2ccc(NC(=O)Nc3ccc(Cl)c(C(F)(F)F)c3)cc2)ccn1` [sorafenib], in the series with MCL1, the “MCL1 downregulation (Western blotting)” value is recorded as “downregulated MCL1”.

B1: tBID (77-195): mmRNA encoding a single copy of amino acids 77-195 of the BID protein with FLAG tag; SEQ ID NOs: 292 and 293 (nucleic acid)
DNA: ATGGAAAGTCAAGAAGACATCATCCGGAATATTGCCAGGCACCTCGCCCAGGTCGGGGACAGCATGGACCGTAGCATCCCTCCGGGCCTGGTGAACGGCCTGGCCCTGCAGCTCAGGAACACCAGCCGGTCGGAGGAGGACCGGAACAGGGACCTGGCCACTGCCCTGGAGCAGCTGCTGCAGGCCTACCCTAGAGACATGGAGAAGGAGAAGACCATGCTGGTGCTGGCCCTGCTGCTGGCCAAGAAGGTGGCCAGTCACACGCCGTCCTTGCTCCGTGATGTCTTTCACACAACAGTGAATTTTATTAACCAGAACCTACGCACCTACGTGAGGAGCTTAGCCAGAAATGGGATGGACATGGATTACAAGGACGATGATGACAAG
modifications: mmRNA, FLAG tag; Synthetic: hum.tBID(77-195).FLAG
B1: the “apoptosis of Hep3B cells” value in series [1] is “induced apoptosis of Hep3B cells”.

The record behind these values is US20210206818A1, “MESSENGER RIBONUCLEIC ACIDS FOR THE PRODUCTION OF INTRACELLULAR BINDING POLYPEPTIDES AND METHODS OF USE THEREOF” (ModernaTX, Inc., priority 2016, published 2021).
